Reference: patent publication US20220409646A1, “MALTOSYL-ISOMALTO-OLIGOSACCHARIDES REDUCE SYMPTOMS OF GASTROESOPHAGEAL REFLUX DISEASE” (ISOThrive Inc., priority 2021, published 2022)

Tested on: subjects with GERD
Conditions: human, in vivo
Text: The study began in March 2020 when a total of 110 subjects were screened for GERD using stringent eligibility criteria by the study coordinator and the principal investigator. […] The subjects acted as their own controls and there was no placebo arm. All subjects had active symptoms as determined by verbal history and daily ReQuest (RQ) validated GERD questionnaire symptom scores above specified thresholds, or GERD symptoms at four or more days per week.
As of May 2021, 44 subjects had completed the following protocol. […] Symptom evaluation for each included: RQ_GI: acid and abdominal (upper/lower) complaints, nausea; RQ_WSO: general well-being, sleep disturbances, and other complaints; and RQ_TOT: the sum of both. The Short Form 36 Health Survey validated questionnaire (see webpage physio-pedia.com/36-Item_Short_Form_Survey_(SF-36)) was used to assess quality of life. The SF-36 form was completed by subjects on day seven of week zero as well as on each day seven per week during the study duration. The subjects had to report any usage of GERD medications such as PPIs, H2 antagonists, and acids throughout the study, as well as any changes in their other medications. The primary endpoint was tolerability, defined as ending on week four with a request symptom score and a SF-36 score that was at or better than the baseline week zero score (determined as >0% reduction in weekly mean RQ symptom scores as % from baseline to week 4). Statistical analysis was done using the Wilcoxon signed-rank test with multiple comparison correction. In addition, a comparison was made of the number of days without acid complaints per week, or the heartburn-free days per week, for week four compared to the week zero baseline.
It was taken 1 g daily at bedtime.
All subjects had active GERD symptoms as determined by the ReQuest validated GERD specific questionnaire and/or GERD symptoms at least 4 days per week. […] All subjects were screened per the eligibility criteria delineated in this protocol by the study coordinator. The study was done remotely. There was communication but no in person contact or visits with the study coordinator.
Two phases were designed into this study. Phase 1 was the Screening Phase (SP). Phase 2 was the Tolerability Phase (TP). Subjects were instructed to take a daily GERD symptom questionnaire, the ReQuest Short Version, daily throughout the study. At five timepoints, specific scores were established for comparison and statistical analysis.

## maltosyl-isomaltooligosaccharides [ISOT-101]
  ISOT-101-related adverse events: no ISOT-101-related adverse events
  nausea, number of patients: 2 patients
  nausea, share of patients: 5%
  subjects who either did not improve or got worse: Five
  tolerability (in words): well tolerated
  worsening of RQ_GI (gastrointestinal symptoms), number of subjects: 5 of 44
  worsening of RQ_TOT (total scores), number of subjects: 4 of 44
  worsening of RQ_TOT (total scores), share of subjects: 9%
